How the values were obtained:
pSTAT5 NT in CD4 T cells = assay: PLA2-GIB bioassay on CD4 T cells: pSTAT5 nuclear translocation in response to IL-7, confocal microscopy; assay type: cell-based, human
Source text: Purification of Human CD4 T-lymphocytes—Venous blood was obtained from healthy volunteers through the EFS (Etablissement Français du Sang, Centre Necker-Cabanel, Paris). CD4 T-cells were purified from whole blood using RosetteSep Human CD4+ T cell Enrichment Cocktail (Stem Cell, 15062). This cocktail contains mouse and rat monoclonal antibodies purified from mouse ascites fluid or hybridoma culture supernatant, by affinity chromatography using protein A or Protein G sepharose. These antibodies are bound in bispecific tetrameric antibody complexes which are directed against cell surface antigens on human hematopoietic cells (CD8, CD16, CD19, CD36, CD56 CD66b, TCRγ/δ) and glycophorin A on red blood cells. The rosetteSep antibody cocktail crosslinks unwanted cells in human whole blood to multiple red blood cells, forming immunorosettes. This increases the density of unwanted cells, such that they pellet along with the free red blood cells when centrifuged over a buoyant density medium such as lymphocytes separation medium (Eurobio, CMSMSL01-01).
Whole blood was incubated with RosetteSep Human CD4+ T cell Enrichment Cocktail at 50 μl/ml for 20 minutes at room temperature under gentle shaking (100 rpm), diluted with an equal volume of PBS+2% foetal bovine serum (FBS) and mixed gently. The diluted samples were centrifuged 20 minutes at 1200×g on top of lymphocytes separation medium. The enriched cells were then collected from the density medium at plasma interface and washed twice with PBS+2% FBS. Cells were subsequently resuspended in RPMI 1640 medium (Lonza) supplemented with 5% FBS, 50 mM HEPES pH 7.4, glutamine, penicillin, streptomycin and fungizone (complete medium), counted with a Moxi Z mini automated cell counter (ORFLO, MXZ000). Cells suspension was adjusted at 7×10^6 cells/ml and equilibrated at least 2 h at 37° C. in a 5% CO2 humidified atmosphere.
The enriched CD4-T cell population was controlled by flow cytometry on a cytoflex (Beckman coulter). The quiescence of recovered CD4 T-cells was controlled by the low level of IL-2Rα (CD25).

[1] = test system: gC1qR KO Jurkat E6.1 T cells; assay: PLA2-GIB enzymatic assay on [3H] arachidonic acid labelled gC1qR KO Jurkat E6.1 T cells; assay type: cell-based, human; conditions: gC1qR KO cells (1D5 or 2G9), pretreatment 21 h, FIG. 13
Source text: Generation of gC1qR KO Jurkat E6.1 T cells—The global strategy for the development of Jurkat cells deprived of C1QBP is based on the design of a targeting vector permitting bi-allelic inactivation of C1QBP gene via homologous recombination. Human C1QBP homologous regions isogenic with the Jurkat E6.1 T cell line (ECACC 88042803) has been used. The targeting vector has been synthetized by Genewiz and cloned into the pUC57-Amp vector. […] The NeoR cassette was cloned using BamHI/NotI restriction sites. The targeting vector has been verified by DNA restriction digestion cut with selected restriction enzymes (APaL1, Drd1, Pvu1, Pvu2, BamH1/NotI, Not1/NcoI, NEB) and target region sequencing. The DNA primers corresponding to C1QBP sgRNA (1828-Crispr_1A: CACC-[…] and 1828-Crispr_1B: AAAC-[…]) were hybridized and cloned (Quick Ligase-New England Biolabs, NEB) into the pX330 plasmid (Addgene, 42230; Feng Zhang, MIT) using BbsI restriction site (NEB).
The Jurkat cells (5×10^6) were resuspended in 100 μL of Opti-MEM and 7 μg of CRISPR/Cas9 plasmid and 2.5 μg of targeting vector were added. The cells were electroporated with a Nepa21 electroporator. After cell selection in G418 selective medium, the Jurkat cell clones were prescreened by PCR genotyping. Independent cell clones knocked-out for C1QBP gene were amplified and verified by PCR genotyping and target region sequencing. […]

NH2-PWNASWSNKSLDDIW—COOH (H-PWNASWSNKSLDDIW-OH) [PEP3]
inhibition of pSTAT5 NT (pSTAT5 NT in CD4 T cells; 0.025 μg/ml of PEP3 with 5 nM of PLA2-GIB, FIG. 5B): 18%
inhibition of pSTAT5 NT (pSTAT5 NT in CD4 T cells; 0.5 μg/ml of PEP3 alone, n=3 donors, FIG. 5C): 5%
effect on pSTAT5 NT (pSTAT5 NT in CD4 T cells; peptide alone, without PLA2-GIB, FIG. 5B): no effect
PLA2-GIB activity vs scrambled PEP3 [1]: not

— patent publication US20200399392A1, “INHIBITORS OF PLA2-G1B COFACTORS FOR TREATING CANCER” (priority 2018, published 2020)
